Data reported in article PMC8073907, “Peptide targeting of lysophosphatidylinositol-sensing GPR55 for osteoclastogenesis tuning” (Cell Communication and Signaling : CCS, 2021).

Tested on: ssGPR55-K80A and ssGPR55-Q87A
Assay: LPI-induced MAPK activation in shGPR55-HeLa clones expressing ssGPR55 mutants
Format: cell-based, human
Conditions: 10 µM 18:0 LPI
Description: The construct of haemagglutinin (HA)-tagged human GPR55 in pcDNA3 (HA-GPR55) was a gift from Prof. K. Mackie, Indiana University, Bloomington, IN, USA [39], while the construct ss-3 × HA-GPR55 in pcDNA3.1 (ssGPR55) with a triple HA tag at the N-terminus and an optimised signal sequence (ss, derived from amino acids 1–33 of the human growth hormone: […]) for efficient surface expression was from Prof. A. Irving, Dundee University, UK [40]. For both constructs, mutations were introduced by site-directed mutagenesis using QuickChange kits (Stratagene, La Jolla, CA, USA), according to the manufacturer instructions. The primers for the K80A mutation were 5′-[…]-3′ and 5′-[…]-3′ (Tm, 70.6 °C), and for Q87A were 5′-[…]-3′ and 5′-[…]-3′ (Tm, 73.1 °C).
HeLa cells were plated at 1.5 × 10^5 cells/well in six-well plates in their growth medium without antibiotics. Twenty-four hours later, the cells were transfected with 2.5 µg/well pcDNA3.1, or the mutants ssGPR55-K80A, ssGPR55-Q87A, or 1.25 µg/well (complemented with 1.25 µg/well empty vector) ssGPR55, using Lipofectamine 2000, according to the manufacturer instructions. The different cDNA amounts were necessary to reach equivalent plasma-membrane expression of the receptors, as the mutants were expressed at lower levels, as verified by FACS analyses, and in line with previous reports.
For stable interference of GPR55, HeLa cells were plated at 1.5 × 10^5 cells/well in six-well plates in growth medium without antibiotics, and 24 h later, the cells were transfected with 1.7 µg/well OmicsLink short hairpin (sh)RNA expression clone CSHCTR001-CU6 (shCTRL) or clone HSH022476-3-CU6 (shGPR55) from GeneCopoeia (Rockville, MD, USA), using Lipofectamine 2000, according the manufacturer instructions. Forty-eight hours after transfection, HeLa clones stably expressing shRNAs were selected in growth medium containing 0.3 µg/mL puromycin. The efficiency of interference was monitored by real-time PCR using the primers listed in the Additional file 1: Table S1. HPRT1 was followed as a housekeeping gene. […]

lysophosphatidylinositol [LPI] was tested, and the “LPI-stimulated activation of p38” value was “no LPI-stimulated activation of p38”, the “LPI-stimulated activation of ERK2, 5 min” value (5 min) was “no response at 5 min” and the “LPI-stimulated activation of ERK2, 10 min” value (10 min) was “reduced response at 10 min”.
